In ChEMBL document CHEMBL5352447, “Development of [1,2]oxazoloisoindoles tubulin polymerization inhibitors: Further chemical modifications and potential therapeutic effects against lymphomas” (Eur J Med Chem, 2022):

Columns and labels:
LOX IMVI = test: Antiproliferative activity against human LOX IMVI cells assessed as cell growth inhibition incubated for 72 hrs by MTT assay; assay type: functional
MDA-MB-435 = test: Antiproliferative activity against human MDA-MB-435 cells assessed as cell growth inhibition incubated for 72 hrs by MTT assay; assay type: functional
NCI-H23 = test: Antiproliferative activity against human NCI-H23 cells assessed as cell growth inhibition incubated for 72 hrs by MTT assay; assay type: functional
UACC-257 = test: Antiproliferative activity against human UACC-257 cells assessed as cell growth inhibition incubated for 72 hrs by MTT assay; assay type: functional
MOLT-4 = test: Antiproliferative activity against human MOLT-4 cells assessed as cell growth inhibition incubated for 72 hrs by MTT assay; assay type: functional
TK-10 = test: Antiproliferative activity against human TK-10 cells assessed as cell growth inhibition incubated for 72 hrs by MTT assay; assay type: functional
CCRF-CEM = test: Antiproliferative activity against human CCRF-CEM cells assessed as cell growth inhibition incubated for 72 hrs by MTT assay; assay type: functional
HCC 2998 = test: Antiproliferative activity against human HCC 2998 cells assessed as cell growth inhibition incubated for 72 hrs by MTT assay; assay type: functional
RPMI-8226 = test: Antiproliferative activity against human RPMI-8226 cells assessed as cell growth inhibition incubated for 72 hrs by MTT assay; assay type: functional
VL51 [1] = test: Antiproliferative activity against human VL51 cells assessed as proliferating cells at 1 uM incubated for 72 hrs by MTT assay relative to control; assay type: functional
MDA-MB-468 = test: Antiproliferative activity against human MDA-MB-468 cells assessed as cell growth inhibition incubated for 72 hrs by MTT assay; assay type: functional
HCT-15 = test: Antiproliferative activity against human HCT-15 cells assessed as cell growth inhibition incubated for 72 hrs by MTT assay; assay type: functional
MCF7 = test: Antiproliferative activity against human MCF7 cells assessed as cell growth inhibition incubated for 72 hrs by MTT assay; assay type: functional
OVCAR-4 = test: Antiproliferative activity against human OVCAR-4 cells assessed as cell growth inhibition incubated for 72 hrs by MTT assay; assay type: functional
SN12C = test: Antiproliferative activity against human SN12C cells assessed as cell growth inhibition incubated for 72 hrs by MTT assay; assay type: functional
SK-OV-3 = test: Antiproliferative activity against human SK-OV-3 cells assessed as cell growth inhibition incubated for 72 hrs by MTT assay; assay type: functional
UO-31 = test: Antiproliferative activity against human UO-31 cells assessed as cell growth inhibition incubated for 72 hrs by MTT assay; assay type: functional
NCI-H226 = test: Antiproliferative activity against human NCI-H226 cells assessed as cell growth inhibition incubated for 72 hrs by MTT assay; assay type: functional
SNB-19 = test: Antiproliferative activity against human SNB-19 cells assessed as cell growth inhibition incubated for 72 hrs by MTT assay; assay type: functional
BT-549 = test: Antiproliferative activity against human BT-549 cells assessed as cell growth inhibition incubated for 72 hrs by MTT assay; assay type: functional
VL51 [2] = test: Antiproliferative activity against human VL51 cells assessed as inhibition of cell proliferation incubated for 72 hrs by MTT assay; assay type: functional, cell-based; conditions: VL51, 72 h
SR = test: Antiproliferative activity against human SR cells assessed as cell growth inhibition incubated for 72 hrs by MTT assay; assay type: functional
SU-DHL10 = test: Antiproliferative activity against human SU-DHL-10 cells assessed as inhibition of cell proliferation incubated for 72 hrs by MTT assay; assay type: functional, cell-based; conditions: SU-DHL10, 72 h
A549 = test: Antiproliferative activity against human A549 cells assessed as cell growth inhibition incubated for 72 hrs by MTT assay; assay type: functional
SK-MEL-2 = test: Antiproliferative activity against human SK-MEL-2 cells assessed as cell growth inhibition incubated for 72 hrs by MTT assay; assay type: functional
ACHN = test: Antiproliferative activity against human ACHN cells assessed as cell growth inhibition incubated for 72 hrs by MTT assay; assay type: functional
SK-MEL-28 = test: Antiproliferative activity against human SK-MEL-28 cells assessed as cell growth inhibition incubated for 72 hrs by MTT assay; assay type: functional
[3] = Antiproliferative activity against human HBL1 cells assessed as proliferating cells at 1 uM incubated for 72 hrs by MTT assay relative to control; assay type: functional
NCI-H460 = test: Antiproliferative activity against human NCI-H460 cells assessed as cell growth inhibition incubated for 72 hrs by MTT assay; assay type: functional
SNB-75 = test: Antiproliferative activity against human SNB-75 cells assessed as cell growth inhibition incubated for 72 hrs by MTT assay; assay type: functional
EKVX = test: Antiproliferative activity against human EKVX cells assessed as cell growth inhibition incubated for 72 hrs by MTT assay; assay type: functional
RXF 393 = test: Antiproliferative activity against human RXF 393 cells assessed as cell growth inhibition incubated for 72 hrs by MTT assay; assay type: functional
[4] = Antiproliferative activity against human MINO cells assessed as inhibition of cell proliferation incubated for 72 hrs by MTT assay; assay type: functional, cell-based
SF-268 = test: Antiproliferative activity against human SF-268 cells assessed as cell growth inhibition incubated for 72 hrs by MTT assay; assay type: functional
Hs-578T = test: Antiproliferative activity against human Hs-578T cells assessed as cell growth inhibition incubated for 72 hrs by MTT assay; assay type: functional
[5] = Antiproliferative activity against human MINO cells assessed as proliferating cells at 1 uM incubated for 72 hrs by MTT assay relative to control; assay type: functional
M14 = test: Antiproliferative activity against human M14 cells assessed as cell growth inhibition incubated for 72 hrs by MTT assay; assay type: functional
HL-60(TB) = test: Antiproliferative activity against human HL-60(TB) cells assessed as cell growth inhibition incubated for 72 hrs by MTT assay; assay type: functional
OVCAR-8 = test: Antiproliferative activity against human OVCAR-8 cells assessed as cell growth inhibition incubated for 72 hrs by MTT assay; assay type: functional
HT-29 = test: Antiproliferative activity against human HT-29 cells assessed as cell growth inhibition incubated for 72 hrs by MTT assay; assay type: functional
COLO 205 = test: Antiproliferative activity against human COLO 205 cells assessed as cell growth inhibition incubated for 72 hrs by MTT assay; assay type: functional
SK-MEL-5 = test: Antiproliferative activity against human SK-MEL-5 cells assessed as cell growth inhibition incubated for 72 hrs by MTT assay; assay type: functional
HCT-116 = test: Antiproliferative activity against human HCT-116 cells assessed as cell growth inhibition incubated for 72 hrs by MTT assay; assay type: functional
IGROV-1 = test: Antiproliferative activity against human IGROV-1 cells assessed as cell growth inhibition incubated for 72 hrs by MTT assay; assay type: functional
UACC-62 = test: Antiproliferative activity against human UACC-62 cells assessed as cell growth inhibition incubated for 72 hrs by MTT assay; assay type: functional
Malme-3M = test: Antiproliferative activity against human Malme-3M cells assessed as cell growth inhibition incubated for 72 hrs by MTT assay; assay type: functional
NCI-H322M = test: Antiproliferative activity against human NCI-H322M cells assessed as cell growth inhibition incubated for 72 hrs by MTT assay; assay type: functional

Structure (SMILES): COc1ccc(Cn2cc3c(c2-c2cc(OC)c(OC)c(OC)c2)CCc2c(CN4CCOCC4)noc2-3)cc1
- GI50 (LOX IMVI): 0.62 µM
- GI50 (MDA-MB-435): 0.25 µM
- GI50 (NCI-H23): 2.17 µM
- GI50 (UACC-257): 1 µM
- GI50 (MOLT-4): 3.06 µM
- GI50 (TK-10): > 100 µM
- GI50 (CCRF-CEM): 1.26 µM
- GI50 (HCC 2998): 2.17 µM
- GI50 (RPMI-8226): 0.77 µM
- Activity (VL51 [1]): 53.3%
- GI50 (MDA-MB-468): 0.34 µM
- GI50 (HCT-15): 0.51 µM
- GI50 (MCF7): 0.36 µM
- GI50 (OVCAR-4): 6.84 µM
- GI50 (SN12C): 3.81 µM
- GI50 (SK-OV-3): 0.97 µM
- GI50 (UO-31): 0.76 µM
- GI50 (NCI-H226): 0.89 µM
- GI50 (SNB-19): 0.86 µM
- GI50 (BT-549): 1.34 µM
- IC50 (VL51 [2]): 0.2 µM
- GI50 (SR): 0.38 µM
- IC50 (SU-DHL10): 0.5 µM
- GI50 (A549): 1.13 µM
- GI50 (SK-MEL-2): 0.55 µM
- GI50 (ACHN): 0.63 µM
- GI50 (SK-MEL-28): > 100 µM
- Activity [3]: 33.9%
- GI50 (NCI-H460): 0.52 µM
- GI50 (SNB-75): 0.31 µM
- GI50 (EKVX): 1.4 µM
- GI50 (RXF 393): 0.29 µM
- IC50 [4]: 0.5 µM
- GI50 (SF-268): 0.78 µM
- GI50 (Hs-578T): 0.5 µM
- Activity [5]: 5.3%
- GI50 (M14): 0.56 µM
- GI50 (HL-60(TB)): 0.39 µM
- GI50 (OVCAR-8): 1.92 µM
- GI50 (HT-29): 0.64 µM
- GI50 (COLO 205): 0.59 µM
- GI50 (SK-MEL-5): 1.86 µM
- GI50 (HCT-116): 0.5 µM
- GI50 (IGROV-1): 0.81 µM
- GI50 (UACC-62): 0.61 µM
- GI50 (Malme-3M): 0.5 µM

Structure (SMILES): COc1ccc(Cn2cc3c(c2-c2cc(OC)c(OC)c(OC)c2)CCc2c(CN4CCCC4)noc2-3)cc1
- GI50 (MDA-MB-435): 0.24 µM
- GI50 (NCI-H23): 2.8 µM
- GI50 (UACC-257): 17 µM
- GI50 (MOLT-4): 1.47 µM
- GI50 (TK-10): 23.4 µM
- GI50 (CCRF-CEM): 0.73 µM
- GI50 (NCI-H322M): 5.55 µM
- GI50 (HCC 2998): 1.84 µM
- GI50 (RPMI-8226): 1.27 µM
- Activity (VL51 [1]): 57%
- GI50 (MDA-MB-468): 0.28 µM
- GI50 (HCT-15): 0.48 µM
- GI50 (MCF7): 0.33 µM
- GI50 (OVCAR-4): 21.4 µM
- GI50 (SN12C): 4.43 µM
- GI50 (SK-OV-3): 6.7 µM
- GI50 (UO-31): 1.16 µM
- GI50 (NCI-H226): 2.07 µM
- GI50 (SNB-19): 0.78 µM
- GI50 (BT-549): 2.47 µM
- IC50 (VL51 [2]): 0.15 µM
- GI50 (SR): 0.36 µM
- IC50 (SU-DHL10): 0.7 µM
- GI50 (A549): 1.33 µM
- GI50 (SK-MEL-2): 13.2 µM
- GI50 (ACHN): 0.63 µM
- GI50 (SK-MEL-28): 11.5 µM
- Activity [3]: 30.6%
- GI50 (NCI-H460): 0.57 µM
- GI50 (SNB-75): 0.67 µM
- GI50 (EKVX): 2.11 µM
- GI50 (RXF 393): 0.89 µM
- IC50 [4]: 0.5 µM
- GI50 (SF-268): 3.15 µM
- GI50 (Hs-578T): 1.8 µM
- Activity [5]: 8.7%
- GI50 (M14): 0.58 µM
- GI50 (HL-60(TB)): 0.32 µM
- GI50 (OVCAR-8): 3.27 µM
- GI50 (HT-29): 0.4 µM
- GI50 (COLO 205): 0.94 µM
- GI50 (SK-MEL-5): 1.02 µM
- GI50 (HCT-116): 0.47 µM
- GI50 (IGROV-1): 0.89 µM
- GI50 (UACC-62): 0.55 µM
- GI50 (Malme-3M): 0.5 µM

Structure (SMILES): CCOC(=O)c1noc2c1CCc1c-2cn(Cc2ccc(OC)cc2)c1-c1cc(OC)c(OC)c(OC)c1
- GI50 (LOX IMVI): 0.65 µM
- GI50 (MDA-MB-435): 0.57 µM
- GI50 (NCI-H23): 3.04 µM
- GI50 (UACC-257): 85.8 µM
- GI50 (MOLT-4): 2.7 µM
- GI50 (TK-10): > 100 µM
- GI50 (CCRF-CEM): 1.04 µM
- GI50 (NCI-H322M): 5.46 µM
- GI50 (HCC 2998): 5.17 µM
- GI50 (RPMI-8226): 2.85 µM
- Activity (VL51 [1]): 79.7%
- GI50 (MDA-MB-468): 5.62 µM
- GI50 (HCT-15): 0.5 µM
- GI50 (MCF7): 0.35 µM
- GI50 (OVCAR-4): 20.5 µM
- GI50 (SN12C): 3.92 µM
- GI50 (SK-OV-3): 5.23 µM
- GI50 (UO-31): 3.44 µM
- GI50 (NCI-H226): > 100 µM
- GI50 (SNB-19): 0.67 µM
- GI50 (BT-549): 1.47 µM
- IC50 (VL51 [2]): 1.8 µM
- GI50 (SR): 2.09 µM
- IC50 (SU-DHL10): 2 µM
- GI50 (A549): 3.8 µM
- GI50 (SK-MEL-2): 4.29 µM
- GI50 (ACHN): 3.51 µM
- GI50 (SK-MEL-28): 1.9 µM
- Activity [3]: 70.1%
- GI50 (NCI-H460): 1 µM
- GI50 (SNB-75): 3.65 µM
- GI50 (EKVX): 3.92 µM
- GI50 (RXF 393): 2.17 µM
- IC50 [4]: 1.4 µM
- GI50 (SF-268): 8.07 µM
- GI50 (Hs-578T): 2.99 µM
- Activity [5]: 41.3%
- GI50 (M14): 0.41 µM
- GI50 (HL-60(TB)): 0.45 µM
- GI50 (OVCAR-8): 3.04 µM
- GI50 (HT-29): 0.85 µM
- GI50 (COLO 205): 1.77 µM
- GI50 (SK-MEL-5): 0.49 µM
- GI50 (HCT-116): 0.4 µM
- GI50 (IGROV-1): 2.45 µM
- GI50 (UACC-62): 2.74 µM
